# Measured values reported in ChEMBL document CHEMBL3745645, “Synthesis, in vitro antitumor activity, dihydrofolate reductase inhibition, DNA intercalation and structure-activity relationship studies of 1,3,5-triazine analogues” (Bioorg Med Chem Lett, 2016).
# The source made the active and inactive calls. The rule behind the calls is not given here.
# Tests used:
# Format in all cases: functional
# [1] = Cytotoxicity against human Caki1 cells at 10 uM after 48 hrs by SRB assay; details: CAKI-1, 48 h, read-out: GI
# [2] = Cytotoxicity against human RXF393 cells at 10 uM after 48 hrs by SRB assay; details: RXF 393, 48 h, read-out: GI
# [3] = system: SN12C; assay: Cytotoxicity against human SN12C cells at 10 uM after 48 hrs by SRB assay; details: read-out: GI
# [4] = system: TK-10; assay: Cytotoxicity against human TK10 cells at 10 uM after 48 hrs by SRB assay
# [5] = Cytotoxicity against human UO31 cells at 10 uM after 48 hrs by SRB assay; details: UO-31, 48 h, read-out: GI
# [6] = Cytotoxicity against human PC3 cells at 10 uM after 48 hrs by SRB assay; details: PC-3, 48 h, read-out: GI
# [7] = Cytotoxicity against human DU145 cells at 10 uM after 48 hrs by SRB assay; details: DU-145, 48 h, read-out: GI
# [8] = system: MCF7; assay: Cytotoxicity against human MCF7 cells at 10 uM after 48 hrs by SRB assay; details: MCF7, 48 h, read-out: GI
# [9] = system: MDA-MB-231; assay: Cytotoxicity against human MDA-MB-231 cells at 10 uM after 48 hrs by SRB assay; details: MDA-MB-231, 48 h, read-out: GI
# [10] = Cytotoxicity against human Hs 578T cells at 10 uM after 48 hrs by SRB assay; details: read-out: GI
# [11] = system: BT-549; assay: Cytotoxicity against human BT549 cells at 10 uM after 48 hrs by SRB assay
# [12] = system: T47D; assay: Cytotoxicity against human T47D cells at 10 uM after 48 hrs by SRB assay
# [13] = system: MDA-MB-468; assay: Cytotoxicity against human MDA-MB-468 cells at 10 uM after 48 hrs by SRB assay; details: MDA-MB-468, 48 h, read-out: GI
# [14] = system: CCRF-CEM; assay: Cytotoxicity against human CCRF-CEM cells at 10 uM after 48 hrs by SRB assay; details: read-out: GI
# [15] = Cytotoxicity against human HL-60(TB) cells at 10 uM after 48 hrs by SRB assay; details: HL-60, 48 h, read-out: GI
# [16] = system: K562; assay: Cytotoxicity against human K562 cells at 10 uM after 48 hrs by SRB assay; details: K562, 48 h, read-out: GI
# [17] = Cytotoxicity against human MOLT4 cells at 10 uM after 48 hrs by SRB assay; details: MOLT-4, 48 h, read-out: GI
# [18] = Cytotoxicity against human RPMI8226 cells at 10 uM after 48 hrs by SRB assay; details: RPMI-8226, 48 h, read-out: GI
# [19] = system: SR; assay: Cytotoxicity against human SR cells at 10 uM after 48 hrs by SRB assay; details: read-out: GI
# [20] = system: A549; assay: Cytotoxicity against human A549 cells at 10 uM after 48 hrs by SRB assay; details: A549, 48 h, read-out: GI
# [21] = Cytotoxicity against human HOP62 cells at 10 uM after 48 hrs by SRB assay; details: HOP-62, 48 h, read-out: GI
# [22] = Cytotoxicity against human HOP92 cells at 10 uM after 48 hrs by SRB assay; details: HOP-92, 48 h, read-out: GI
# [23] = system: NCI-H226; assay: Cytotoxicity against human NCI-H226 cells at 10 uM after 48 hrs by SRB assay; details: NCI-H226, 48 h, read-out: GI
# [24] = system: NCI-H460; assay: Cytotoxicity against human NCI-H460 cells at 10 uM after 48 hrs by SRB assay; details: NCI-H460, 48 h, read-out: GI
# [25] = system: NCI-H522; assay: Cytotoxicity against human NCI-H522 cells at 10 uM after 48 hrs by SRB assay; details: NCI-H522, 48 h, read-out: GI
# [26] = system: COLO 205; assay: Cytotoxicity against human COLO205 cells at 10 uM after 48 hrs by SRB assay
# [27] = Cytotoxicity against human HCC2998 cells at 10 uM after 48 hrs by SRB assay; details: HCC 2998, 48 h, read-out: GI
# [28] = Cytotoxicity against human HCT116 cells at 10 uM after 48 hrs by SRB assay; details: HCT-116, 48 h, read-out: GI
# [29] = Cytotoxicity against human HCT15 cells at 10 uM after 48 hrs by SRB assay; details: HCT-15, 48 h, read-out: GI
# [30] = system: HT-29; assay: Cytotoxicity against human HT-29 cells at 10 uM after 48 hrs by SRB assay; details: HT-29, 48 h, read-out: GI
# [31] = system: KM12; assay: Cytotoxicity against human KM12 cells at 10 uM after 48 hrs by SRB assay; details: KM12, 48 h, read-out: GI
# [32] = Cytotoxicity against human SW620 cells at 10 uM after 48 hrs by SRB assay; details: SW-620, 48 h, read-out: GI
# [33] = Cytotoxicity against human SF268 cells at 10 uM after 48 hrs by SRB assay; details: SF-268, 48 h, read-out: GI
# [34] = Cytotoxicity against human SF295 cells at 10 uM after 48 hrs by SRB assay; details: SF-295, 48 h, read-out: GI
# [35] = Cytotoxicity against human SF539 cells at 10 uM after 48 hrs by SRB assay; details: SF-539, 48 h, read-out: GI
# [36] = system: SNB-19; assay: Cytotoxicity against human SNB19 cells at 10 uM after 48 hrs by SRB assay
# [37] = Cytotoxicity against human SNB75 cells at 10 uM after 48 hrs by SRB assay; details: SNB-75, 48 h, read-out: GI
# [38] = Cytotoxicity against human LOXIMVI cells at 10 uM after 48 hrs by SRB assay; details: LOX IMVI, read-out: GI
# [39] = system: Malme-3M; assay: Cytotoxicity against human MALME-3M cells at 10 uM after 48 hrs by SRB assay; details: read-out: GI
# [40] = system: M14; assay: Cytotoxicity against human M14 cells at 10 uM after 48 hrs by SRB assay
# [41] = system: MDA-MB-435; assay: Cytotoxicity against human MDA-MB-435 cells at 10 uM after 48 hrs by SRB assay; details: MDA-MB-435, 48 h, read-out: GI
# [42] = system: SK-MEL-2; assay: Cytotoxicity against human SK-MEL-2 cells at 10 uM after 48 hrs by SRB assay
# [43] = system: SK-MEL-28; assay: Cytotoxicity against human SK-MEL-28 cells at 10 uM after 48 hrs by SRB assay
# [44] = system: SK-MEL-5; assay: Cytotoxicity against human SK-MEL-5 cells at 10 uM after 48 hrs by SRB assay; details: SK-MEL-5, 48 h, read-out: GI
# [45] = Cytotoxicity against human UACC257 cells at 10 uM after 48 hrs by SRB assay; details: UACC-257, 48 h, read-out: GI
# [46] = Cytotoxicity against human UACC62 cells at 10 uM after 48 hrs by SRB assay; details: UACC-62, 48 h, read-out: GI
# [47] = Cytotoxicity against human IGROV1 cells at 10 uM after 48 hrs by SRB assay; details: IGROV-1, 48 h, read-out: GI
# [48] = Cytotoxicity against human OVCAR3 cells at 10 uM after 48 hrs by SRB assay; details: OVCAR-3, 48 h, read-out: GI
# [49] = Cytotoxicity against human OVCAR4 cells at 10 uM after 48 hrs by SRB assay; details: OVCAR-4, 48 h, read-out: GI
# [50] = Cytotoxicity against human OVCAR5 cells at 10 uM after 48 hrs by SRB assay; details: OVCAR-5, 48 h, read-out: GI
# [51] = Cytotoxicity against human OVCAR8 cells at 10 uM after 48 hrs by SRB assay; details: OVCAR-8, 48 h, read-out: GI
# [52] = system: NCI/ADR-RES; assay: Cytotoxicity against human NCI-ADR-RES cells at 10 uM after 48 hrs by SRB assay
# [53] = system: SK-OV-3; assay: Cytotoxicity against human SKOV3 cells at 10 uM after 48 hrs by SRB assay
# [54] = system: 786-0; assay: Cytotoxicity against human 786-0 cells at 10 uM after 48 hrs by SRB assay; details: 786-0, 48 h, read-out: GI
# [55] = system: A498; assay: Cytotoxicity against human A498 cells at 10 uM after 48 hrs by SRB assay; details: A498, 48 h, read-out: GI
# [56] = system: ACHN; assay: Cytotoxicity against human ACHN cells at 10 uM after 48 hrs by SRB assay; details: read-out: GI
smiles,measurement,setting,value
Cc1nc2cc(Nc3nc(Nc4ccc(O)cc4)nc(Nc4ccc(F)cc4)n3)ccc2n1Cc1ccccc1,inhibition of growth at 10 µM,[1],4.53%
same,inhibition of growth at 10 µM,[2],18.8%
same,inhibition of growth at 10 µM,[3],2.54%
same,growth inhibition (GI),[4],inactive
same,inhibition of growth at 10 µM,[5],6.02%
same,inhibition of growth at 10 µM,[6],10.7%
same,inhibition of growth at 10 µM,[7],41.6%
same,inhibition of growth at 10 µM,[8],16%
same,inhibition of growth at 10 µM,[9],11.3%
same,inhibition of growth at 10 µM,[10],1.42%
same,growth inhibition (GI),[11],inactive
same,growth inhibition (GI),[12],inactive
same,inhibition of growth at 10 µM,[13],13.4%
same,inhibition of growth at 10 µM,[14],8.15%
same,inhibition of growth at 10 µM,[15],6.96%
same,inhibition of growth at 10 µM,[16],21.3%
same,inhibition of growth at 10 µM,[17],19.8%
same,inhibition of growth at 10 µM,[18],26.7%
same,inhibition of growth at 10 µM,[19],20.8%
same,inhibition of growth at 10 µM,[20],22.2%
same,inhibition of growth at 10 µM,[21],3.47%
same,inhibition of growth at 10 µM,[22],17.8%
same,inhibition of growth at 10 µM,[23],12.8%
same,inhibition of growth at 10 µM,[24],18.2%
same,inhibition of growth at 10 µM,[25],15.1%
same,growth inhibition (GI),[26],inactive
same,inhibition of growth at 10 µM,[27],4.67%
same,inhibition of growth at 10 µM,[28],10.6%
same,inhibition of growth at 10 µM,[29],17.3%
same,inhibition of growth at 10 µM,[30],4.8%
same,inhibition of growth at 10 µM,[31],17.6%
same,inhibition of growth at 10 µM,[32],18.8%
same,inhibition of growth at 10 µM,[33],11.2%
same,inhibition of growth at 10 µM,[34],5.35%
same,inhibition of growth at 10 µM,[35],6.34%
same,growth inhibition (GI),[36],inactive
same,inhibition of growth at 10 µM,[37],15.1%
same,inhibition of growth at 10 µM,[38],3.79%
same,inhibition of growth at 10 µM,[39],0.89%
same,growth inhibition (GI),[40],inactive
same,inhibition of growth at 10 µM,[41],4.26%
same,growth inhibition (GI),[42],inactive
same,growth inhibition (GI),[43],inactive
same,inhibition of growth at 10 µM,[44],5.6%
same,inhibition of growth at 10 µM,[45],3.73%
same,inhibition of growth at 10 µM,[46],3.94%
same,inhibition of growth at 10 µM,[47],2.23%
same,inhibition of growth at 10 µM,[48],8.38%
same,inhibition of growth at 10 µM,[49],12.8%
same,inhibition of growth at 10 µM,[50],3.66%
same,inhibition of growth at 10 µM,[51],22.2%
same,growth inhibition (GI),[52],inactive
same,growth inhibition (GI),[53],inactive
same,inhibition of growth at 10 µM,[54],6.04%
same,inhibition of growth at 10 µM,[55],13.4%
same,inhibition of growth at 10 µM,[56],8.7%
